The test system of assay [1] is dog IgE. As to the kind of experiment: Intravenous administration test using rats: IgG antibody against dog IgE (ELISA). The class given is in vivo. The note with it: i.v. The protocol: The dog IgE protein (Bethyl Laboratories, Inc.; P115), the mouse IgE protein (BD Biosciences, San Jose, Calif., USA), and the human IgE protein (Athens Research And Technology, Inc.; 16-16-090705-ML) were each prepared at 1 μg/mL, 500 ng/mL, 250 ng/mL, 125 ng/mL, 62.5 ng/mL, 31.2 ng/mL, 15.6 ng/mL, 7.8 ng/mL, 3.9 ng/mL, 1.95 ng/mL, and 0.97 ng/mL in an immobilization buffer (0.05 M carbonate buffer, pH 9.6), then added at a concentration of 100 μL/well to an ELISA plate, and left overnight at 4° C. The immobilization plate was washed once with PBS-T (0.05%). A blocking solution (4× Block Ace, Snow Brand Milk Products Co., Ltd.; UK-B80) was added thereto at a concentration of 200 μL/well. The plate was blocked by incubation at 37° C. for 1.5 hours. The serum was diluted 2000-fold with a diluent (PBS-T:Block Ace=9:1) and used. The serum of an unimmunized rat was similarly diluted and used as a negative control. […] Then, the measurement was performed using a plate reader (Bio-Rad Laboratories, Inc.; model 680) (dual: measurement: 450 nm, control: 570 nm).
This peptide was used in the immunization of rats without the use of an adjuvant, and antibody response to dog IgE was evaluated. […]
Blood was collected every 2 weeks from the administer start date up to 8 weeks after the third immunization. Serum was collected, and an IgG antibody against dog IgE was evaluated by ELISA (FIG. 13). […]
On the technique in general: An ELISA detects its analyte on a solid surface through an enzyme-linked reagent.

Assay [2] deals with anti-dog IgE monoclonal antibodies. The assay is described as follows: Epitope analysis of synthetic IgE CH3 region peptides by ELISA. The note with it: peptide immobilized 100 ng/well, ELISA with anti-IgE monoclonal antibodies. The class given is binding. As to the method:
Epitope analysis was conducted on mouse monoclonal antibodies binding to a dog IgE antibody and rat monoclonal antibodies binding to dog and mouse IgE antibodies. Mouse anti-dog IgE antibodies (clone name: CCH3-4, CCH5-5, CCH3-12, CCH3-13, CCH3-14, and CCH3-15) were prepared from mice immunized with the dog IgE CH3 (Cε3) region gene. Also, anti-IgE monoclonal antibodies (clone name: X-1, X-2, CCH3-21, and CCH3-22) were prepared from rats immunized with the dog and mouse IgE CH3 (Cε3) region genes. These antibodies were used as samples to synthesize synthetic peptides (SEQ ID NOs: 2 to 20 and 22 to 26) of the dog and mouse IgE peptide CH3 (Cε3) regions consisting of the sequences shown in FIG. 1-1. The epitope analysis was conducted by ELISA. […] The anti-dog IgE monoclonal antibodies that responded to the peptide were detected using secondary antibodies (anti-mouse IgG HRP (horseradish peroxidase)-labeled antibody for the anti-dog IgE antibodies prepared using mice, and anti-rat IgG HRP-labeled antibody for the anti-dog IgE antibodies prepared using rats).

Assay [3] deals with cat IgE. The assay is described as follows: Reactivity of serum of peptide-immunized rabbit with cat IgE recombinant CH3 (ELISA). The class given is in vivo. The note with it: 500 μg peptide + complete adjuvant s.c. The protocol: (§1) 2 mL of the 250 μg/mL peptide (a total of 500 μg) used in Example 2 was mixed with an equal amount of a complete adjuvant (a total of 4 mL). Each rabbit was immunized with this mixture by the subcutaneous administration (amount of the peptide: 500 μg) at day 0 and weeks 2, 4, 6, and 8. Blood was collected 5 weeks after the week-8 administration (week 13 counted from day 0). Booster immunization was performed at week 14 counted from day 0, and blood was further collected 2 weeks thereafter (week 16 counted from day 0). Antibody titers in the collected blood were measured by ELISA. The serum of a rabbit that received no peptide was used as a control.
(§2) ELISA was performed by the following method: each […] recombinant CH3 solution of dog IgE, human IgE, mouse IgE, dog IgG, and cat IgE was immobilized at a concentration of 100 μL/well (100 ng/well) to a plate. The serum collected from the immunized rabbit was used (×200 to ×102400) as a primary antibody. An enzyme-labeled anti-rabbit IgG antibody (Zymed Laboratories Inc.) was used as a secondary antibody.

Assay [4] has as its system human IgE. As to the kind of experiment: Reactivity of serum of peptide-immunized rabbit with human IgE (ELISA). The class given is in vivo. The note with it: 500 μg peptide + complete adjuvant s.c. As to the method: as §1, §2

As for “KKTSVSASQWYTKHHNNATT (listed as Mus musculus) [M4-7-11]”, the “anti-dog IgE IgG antibody titers in rat serum” value in assay [1] (all dose groups, final day (8 weeks after the third vaccination day)) is listed as 3000 times. For the same sequence, the “level of the IgG antibody against dog IgE” value in assay [1] (rat, 1 mg, 500 μg, 100 μg or 50 μg per animal three times, no adjuvant, all groups) was “a rise in the level of the IgG antibody against dog IgE was confirmed”.
Turning to “QEKKTSVSASQWYTKHHNNATTSIT (listed as Mus musculus) [MOUSE CH3-4-17-11]”, the “epitope in IgE CH3 region peptide” value in assay [2] was “peptide of an epitope region”. The “response of immobilized cat IgE to peptide-administered rabbit serum” value in assay [3] is on record as “responded”. For the same sequence, in assay [4], the “response of immobilized human IgE to peptide-administered rabbit serum” value is recorded as “responded”.
